Laboratory results from patent US12458693B2, “Methods of treating iron overload with a BMP inhibitor” (Keros Therapeutics, Inc., priority 2020, dated 2025).
“Also recorded” adds a separate entry of the source.

Assays:
hepcidin 25 = assay: Time course of serum hepcidin in wild-type mice (ELISA); format: in vivo, C57BI/6 mice; settings: 5 mg/kg gavage once daily, third treatment day
Procedure: (§1) To assess the effect of the compound of Formula I-42, a small molecule selective ALK2 kinase inhibitor, on hepcidin and serum iron, a time course experiment was conducted. For time course analysis, female C57BI/6 mice were gavaged once daily with either the compound of Formula I-42 (5 mg/kg), or vehicle. On the third treatment day, ten mice from each dosing group were euthanized 4, 6, 8, 12, 16, or 24 hours post-dosing. Blood was sampled and serum extracted. The mature form of hepcidin (hepcidin 25) was measured in serum with the use of a commercial ELISA (Intrinsic LifeSciences, CA) as per the manufacturer's instructions. Serum iron levels were determined with the use of a commercial assay that was based on the standard bathophenanthroline disulfonate method (BioAssay Systems, CA) as per the manufacturer's instructions. […] Data are shown as the average±SEM.

serum iron [1] = assay: Time course of serum iron in wild-type mice (bathophenanthroline disulfonate method); format: in vivo, C57BI/6 mice; settings: 5 mg/kg gavage once daily
Procedure: as §1

liver iron content = assay: Liver iron content in iron dextran mouse model of iron overload, first assay (30% HCl 10% TCA extraction); format: in vivo, CD1 mice; settings: 5 mg/kg QD, by 63 hours of dosing, iron overloaded mice; ****P<0.0001
Procedure: (§2) After 20 days of iron loading, a subgroup of mice was sacrificed to confirm iron overload. The remaining iron loaded mice were dosed QD with either the compound of Formula I-42, a small molecule selective ALK2 kinase inhibitor (5 mg/kg) or vehicle. […] Mice were sacrificed 16 hours post the 1st dose (16 hr) and […] post the 3rd dose (63 hr) of the compound of Formula I-42 and livers dissected and weighed.
(§3) Two assays were performed to evaluate tissue iron. In the first assay, non-heme tissue iron was extracted via acid hydrolysis and iron levels determined using the bathophenanthroline disulfonate method. Briefly, 50 mg sections of mouse liver were flash frozen on liquid nitrogen at study termination. Samples were processed by addition of a 30% HCl 10% Trichloroacetic acid mixture and allowed to extract for 20 hours at 65° C. Following extraction, samples were cooled to room temperature and centrifuged briefly. Samples were transferred to a 96-well plate at the appropriate dilution and a chromogen reagent mixture containing bathophenanthrolinedisulfonic acid, thioglycolic acid, and saturated sodium acetate was added. Samples and standards were then read via absorbance at 535 nm on a SpectraMax plate reader immediately. Sample concentrations were determined by linear regression analysis in GraphPad Prism. […] Data are shown as average±SEM. […]

[2] = tested on: non-dextran-bound iron content in livers; assay: Non-dextran-bound liver iron in iron dextran mouse model of iron overload, second assay (10% HCl 10% TCA extraction); format: in vivo, CD1 mice; settings: 5 mg/kg QD, iron overloaded mice; **P<0.01, ****P<0.0001
Procedure: as §2
as §3, with “In” for “Two assays were performed to evaluate tissue iron. In”, “second” for “first”, “10%” for “30%”, “containing of” for “containing”, “standards and blanks” for “standards”, “after a brief incubation.” for “immediately.”

[3] = Phase 1 SAD/MAD study in healthy volunteers: safety and tolerability; format: in vivo, human; settings: for dose level up to which well tolerated: healthy participants
Description: A total of 131 healthy, males aged 18 to 60 years and post-menopausal females aged 45 to 60 years, participated in this study.
(§4) The primary objectives of this study were to a) evaluate safety and tolerability of escalating doses of the compound of Formula I-11 administered as single and multiple oral doses in healthy male volunteers and healthy postmenopausal female volunteers and b) evaluate the PK parameters following escalating doses of the compound of Formula I-11 administered as single and multiple oral doses. The secondary objective of this study was to evaluate the pharmacodynamic (PD) parameters following escalating doses of the compound of Formula I-11 administered as single and multiple oral doses. This study was conducted in two parts.
Part 1 included 80 participants (10 cohorts of 8 participants each). Male and female participants who met the eligibility criteria were randomly assigned, in a ratio of 3:1 to receive the compound of Formula I-11 or matching placebo, N=6 and 2 per dose cohort, respectively. Participant enrollment included […] males and 12.5% females (postmenopausal). The IMP formulation used in Cohorts 1 through 6 was an oral capsule (doses of 1, 3, 10, 30, 100, or 300 mg capsule formulation). An oral liquid formulation was evaluated in Cohorts 7 through 10 (doses of 30, 100, 300 or 450 mg liquid formulation).
(§5) Participants in Part 1 received a single oral dose of the compound of Formula I-11 or placebo on Day 1 and serial PK samples were collected. Baseline assessments were performed on day −1 prior to dosing. Samples were collected for determination of pharmacodynamic parameters at pre-dose daily and up to 24 hours post dose (day 2) after a single oral dose of the compound of Formula I-11. Participants remained at the study site for observation for 24 hours post-dose through the PK sample collection on Day 2. Participants returned to the site for the 48, 72, and 120-hour post-dose sample collection on Days 3, 4, and 6. Safety was evaluated by a Safety Review Committee prior to escalation to the next dose level cohort.
Part 2, Cohorts 1 through 4, included 41 participants (4 cohorts of 10 participants each and 1 additional placebo participant in Cohort 1). Male and female participants who met the eligibility criteria were randomly assigned at a ratio of 4:1 to receive either the compound of Formula I-11 oral liquid formulation or matching placebo, N=8 and 2 per dose cohort respectively. Forty (97.6%) males and 1 (2.4%) female (placebo) participant were enrolled.
(§6) Participants in Part 2, Cohorts 1 through 3, received a daily oral dose of the compound of Formula I-11 (50, 100, or 200 mg liquid formulation respectively) or placebo for 7 days. A daily oral dose of the compound of Formula I-11 or placebo in participants in Part 2, Cohort 4 (350 mg liquid formulation) was planned for 14 days but was discontinued early in all subjects, either by the Investigator because of AEs, or by the Sponsor. A decision was made by the Sponsor to discontinue dosing of the entire cohort based on the frequency of AEs and laboratory abnormalities after Day 9. In Cohort 4, participants on the compound of Formula I-11 received daily oral dosing of 350 mg for up to 7 days; one placebo participant received daily oral dosing for 9 days. Samples were collected for determination of pharmacodynamic parameters at pre-dose daily and to 24 hours post dose (day 8) while on drug. Daily trough PK samples were collected for the determination of steady-state from Day 2 to Day 12 or 13. Participants returned to the site on Day 30 for an end-of-study visit. Safety was evaluated by a Safety Review Committee prior to escalation to the next dose level cohort.
Part 2, MAD Cohort 5 (C5) participants received either the compound of Formula I-11, 100 mg (n=8) or placebo (n=2) on Days 1, 2, 3, 4, 5, 6, 7. The last dose was administered on the morning of Day 7. […]

[4] = Phase 1 SAD/MAD study in healthy volunteers: pharmacokinetics; format: in vivo, human
Description: as §4
Participants in Part 1 received a single oral dose of the compound of Formula I-11 or placebo on Day 1 and serial PK samples were collected. Baseline assessments were performed on day −1 prior to dosing. Samples were collected for determination of pharmacodynamic parameters at pre-dose daily and up to 24 hours post dose (day 2) after a single oral dose of the compound of Formula I-11. […] Safety was evaluated by a Safety Review Committee prior to escalation to the next dose level cohort.
Participants in Part 2, Cohorts 1 through 3, received a daily oral dose of the compound of Formula I-11 (50, 100, or 200 mg liquid formulation respectively) or placebo for 7 days. […] Safety was evaluated by a Safety Review Committee prior to escalation to the next dose level cohort. […]

serum hepcidin = assay: Serum hepcidin in healthy volunteers (Intrinsic Hepcidin IDx ELISA); format: in vivo, human
Procedure: as §6, with “Daily trough PK samples were collected for the determination of steady-state from Day 2 to Day 12 or 13. Participants returned to the site on Day 30 for an end-of-study visit.” left out, “cohort. […]” for “cohort.”
(§7) Pharmacodynamic endpoints: Protocol-specified endpoints were assessed at baseline and regularly throughout the study period. These assessments included measurements of serum iron, transferrin saturation (calculated as serum iron/total iron-binding capacity), serum ferritin, serum hepcidin, and reticulocyte hemoglobin content. […]

serum iron [5] = assay: Serum iron in healthy volunteers; format: in vivo, human
Procedure: as §5, §6
(§8) Pharmacodynamic endpoints: Protocol-specified endpoints were assessed at baseline and regularly throughout the study period. These assessments included measurements of serum iron, transferrin saturation (calculated as serum iron/total iron-binding capacity), serum ferritin, serum hepcidin, and reticulocyte hemoglobin content. Measurements of all pharmacodynamic end points were made using standard clinical laboratory tests. Hepcidin analysis was performed using an ELISA kit from Intrinsic LifeSciences (Intrinsic Hepcidin IDx™ ELISA kit).

transferrin saturation = assay: Transferrin saturation (TSAT) in healthy volunteers; format: in vivo, human
Procedure: as §5, §6, §8

serum ferritin = assay: Serum ferritin in healthy volunteers; format: in vivo, human
Procedure: as §5
Participants in Part 2, Cohorts 1 through 3, received a daily oral dose of the compound of Formula I-11 (50, 100, or 200 mg liquid formulation respectively) or placebo for 7 days. […] Safety was evaluated by a Safety Review Committee prior to escalation to the next dose level cohort.
as §7

[6] = tested on: reticulocyte hemoglobin content; assay: Reticulocyte hemoglobin content in healthy volunteers (MAD); format: in vivo, human
Procedure: as §6, §8

lymphocytes = assay: Lymphocyte counts in healthy volunteers (MAD); format: in vivo, human
Procedure: as §6

[7] = Day 4, MAD first dose level (50 mg daily)
[8] = Day 4, MAD fourth dose level (350 mg daily)
[9] = Day 4, MAD second dose level (100 mg daily)
[10] = Day 4, MAD third dose level (200 mg daily)

COc1cc2c(-c3cnn4cc(N5CC(N6CCN(C)CC6)C5)cnc34)ccnc2cc1F [Formula I-42]
onset of hepcidin reduction (hepcidin 25): as soon as four hours post-administration | hepcidin reduction sustained through (hepcidin 25; post-administration): 12 h | effect on circulating hepcidin (hepcidin 25; wild-type mice): reduced circulating hepcidin levels | peak serum iron (serum iron [1]; at 16 hours, average): 716.31 µg/dL | onset of serum iron increase (serum iron [1]; third treatment day): eight hours post-administration | time of peak serum iron (serum iron [1]; third treatment day, post-administration): 16 h | effect on serum iron (serum iron [1]; third treatment day, wild-type mice): increased serum iron | effect on liver iron content (liver iron content): reduce liver iron content; also recorded: significantly reduced liver iron content | effect on non-dextran-bound iron content in livers [2]: significantly reduced non-dextran-bound iron content

COc1cc2c(-c3cnn4cc(N5CCC(N6CCN(C)CC6)CC5)cnc34)ccnc2cc1F [Formula I-11]
dose level up to which well tolerated ([3]; after 7 daily oral doses): up to 200 mg | AEs reported in >2 treated subjects and higher than placebo ([3]; human, in vivo): headache, nausea, vomiting, diarrhea, gastroenteritis, chills, pyrexia, myalgia, decreased appetite, lymphopenia, neutropenia, abdominal discomfort, abdominal pain (upper), dizziness, fatigue, rhinorrhea, tonsillitis, and liver enzyme increases | AEs that led to study drug discontinuation in three or more participants ([3]; human, in vivo): lymphopenia and chills | participants who discontinued the study due to AEs ([3]; human, in vivo): 10 of 40 (25%) | serious adverse events ([3]; human, in vivo): no serious adverse events | severity of the majority of AEs ([3]; human, in vivo): mild or moderate in severity | subjects who discontinued the study due to AEs ([3]; human, in vivo): none | subjects with increases in ALT>2×ULN ([3]; human, in vivo): 3 | dose level up to which well tolerated ([3]; single oral dose): up to 450 mg | half-life ([4]; both sexes, human, in vivo, oral, approximately): 10 to 15 h | mean AUC and Cmax versus dose ([4]; multiple doses from 50-200 mg): increased linearly with greater than dose-proportional increases | earliest decrease in hepcidin after first dose (serum hepcidin; MAD Cohort 5, 100 mg): 4 h | effect on serum hepcidin versus placebo (serum hepcidin; once-daily oral over 7 days, similar at 50 mg, 100 mg and 200 mg): robust decreases in baseline hepcidin | serum iron mean change from baseline (serum iron [5]; [7]): 1.48 μM/L | serum iron mean change from baseline (serum iron [5]; [8]): 17.71 μM/L | serum iron mean change from baseline (serum iron [5]; [9]): 0.59 μM/L | serum iron mean change from baseline (serum iron [5]; [10]): 5.11 μM/L | serum iron concentrations by Day 7 (serum iron [5]; MAD, some participants exhibiting large PD effects on Day 4): returned to baseline or below | time of peak serum iron concentrations (serum iron [5]; multiple dose regimen, day of treatment): Day 3 or 4 | effect on serum iron (serum iron [5]; single (SAD) or once-daily (MAD) oral administration): rapid, robust, and sustained dose-related increases in serum iron | time of peak serum iron effect (serum iron [5]; single dose, Day 2, post-dose): 24 h | transferrin saturation mean percent change from baseline (transferrin saturation; [7]): 1.6% | transferrin saturation mean percent change from baseline (transferrin saturation; [8]): 30.1% | transferrin saturation mean percent change from baseline (transferrin saturation; [9]): 1.5% | transferrin saturation mean percent change from baseline (transferrin saturation; [10]): 7.5% | observed PD response (transferrin saturation) (transferrin saturation; once-daily doses of 50 mg): not substantially different from placebo | observed PD response (transferrin saturation) (transferrin saturation; single dose of 30 mg, liquid formulation): not substantially different from placebo | effect on transferrin saturation (transferrin saturation; single or repeated doses of 100 mg or above): sustained, dose-related increases in transferrin saturation | effect on serum ferritin (serum ferritin; MAD cohort participants): decreases were observed in serum ferritin | effect on serum ferritin, single versus multiple doses (serum ferritin; SAD versus MAD): observed only after multiple doses | peak increase in reticulocyte hemoglobin content ([6]; MAD): 7 days | start of increase in reticulocyte hemoglobin content ([6]; MAD cohorts 1-4, post-dosing): 4 days | effect on reticulocyte hemoglobin content ([6]; repeated administration): increases over baseline in the hemoglobin content of reticulocytes | reversibility of lymphopenia (lymphocytes; after the treatment period ended): reversible | development of lymphopenia (lymphocyte counts<1.0×10^9 cells/L) (lymphocytes; repeated oral administration, onward): ≥ 6 day | start of decreases in lymphocyte counts (lymphocytes; repeated oral administration, post treatment, higher doses): 5 days
